Data: PubChem BioAssay (NCI)
Several values for one entry are separate records, joined by “and”; a condition that tells them apart may be missing. Identical values can stand only once.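 How tested: cells in 96-well plates exposed to compound for 48 hours at five concentrations. Abbreviation: GI50, concentration required for 50% inhibition of growth. Definition used: TGI = concentration required for complete inhibition of growth.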

Assays:
Experiment in all cases: inhibition of tumour cell growth, NCI panel, 48 h
786-0 renal = test system: 786-0 renal
A498 renal = test system: A498 renal
A549 NSCLC = test system: A549 NSCLC
ACHN renal = test system: ACHN renal
BT-549 breast = test system: BT-549 breast
CAKI-1 renal = test system: CAKI-1 renal
CCRF-CEM leukemia = test system: CCRF-CEM leukemia
COLO 205 colon = test system: COLO 205 colon
DU-145 prostate = test system: DU-145 prostate
EKVX NSCLC = test system: EKVX NSCLC
HCC-2998 colon = test system: HCC-2998 colon
HCT-116 colon = test system: HCT-116 colon
HCT-15 colon = test system: HCT-15 colon
HL-60(TB) leukemia = test system: HL-60(TB) leukemia
HOP-62 NSCLC = test system: HOP-62 NSCLC
HOP-92 NSCLC = test system: HOP-92 NSCLC
HS 578T breast = test system: HS 578T breast
HT29 colon = test system: HT29 colon
IGROV1 ovarian = test system: IGROV1 ovarian
K-562 leukemia = test system: K-562 leukemia
KM12 colon = test system: KM12 colon
M14 melanoma = test system: M14 melanoma
MALME-3M melanoma = test system: MALME-3M melanoma
MCF7 breast = test system: MCF7 breast
MDA-MB-231 breast = test system: MDA-MB-231 breast
MDA-MB-435 = test system: MDA-MB-435
MDA-N = test system: MDA-N
NCI-H226 lung = test system: NCI-H226 lung
NCI-H23 lung = test system: NCI-H23 lung
NCI-H522 lung = test system: NCI-H522 lung
NCI/ADR-RES ovarian = test system: NCI/ADR-RES ovarian
OVCAR-3 ovarian = test system: OVCAR-3 ovarian
OVCAR-4 ovarian = test system: OVCAR-4 ovarian
OVCAR-5 ovarian = test system: OVCAR-5 ovarian
OVCAR-8 ovarian = test system: OVCAR-8 ovarian
PC-3 prostate = test system: PC-3 prostate
RPMI-8226 leukemia = test system: RPMI-8226 leukemia
RXF 393 renal = test system: RXF 393 renal
SF-268 CNS = test system: SF-268 CNS
SF-295 CNS = test system: SF-295 CNS
SF-539 CNS = test system: SF-539 CNS
SK-MEL-2 melanoma = test system: SK-MEL-2 melanoma
SK-MEL-28 melanoma = test system: SK-MEL-28 melanoma
SK-OV-3 ovarian = test system: SK-OV-3 ovarian
SN12C renal = test system: SN12C renal
SNB-19 CNS = test system: SNB-19 CNS
SNB-75 CNS = test system: SNB-75 CNS
SW-620 colon = test system: SW-620 colon
T-47D breast = test system: T-47D breast
TK-10 renal = test system: TK-10 renal
U251 CNS = test system: U251 CNS
UACC-257 melanoma = test system: UACC-257 melanoma
UACC-62 melanoma = test system: UACC-62 melanoma
UO-31 renal = test system: UO-31 renal
MOLT-4 leukemia = test system: MOLT-4 leukemia
NCI-H460 lung = test system: NCI-H460 lung
SK-MEL-5 melanoma = test system: SK-MEL-5 melanoma
SR leukemia = test system: SR leukemia

With `CC[C@@]1(O)C(=O)OCc2c1cc1n(c2=O)Cc2c-1nc1ccccc1c2C=Nc1ccccc1N[C@@H]1c2cc3c(cc2[C@@H](c2cc(OC)c(O)c(OC)c2)[C@H]2C(=O)OC[C@@H]21)OCO3` the TGI (786-0 renal) was 0.339 µM, the GI50 (A498 renal) was 0.325 µM and 0.142 µM and the TGI (A498 renal) was 1.79 µM and 0.68 µM. The TGI (A549 NSCLC) was 7.62 µM, the TGI (ACHN renal) was 0.961 µM and 0.171 µM and the TGI (BT-549 breast) was over 50 µM. The GI50 (CAKI-1 renal) was 0.0138 µM, the TGI (CAKI-1 renal) was 0.807 µM and 0.494 µM and the TGI (CCRF-CEM leukemia) was over 100 µM. The GI50 (COLO 205 colon) was 8.86 µM and 0.929 µM, the TGI (COLO 205 colon) was 24.8 µM and > 10.6 µM and the TGI (DU-145 prostate) was 0.0979 µM and 0.0432 µM. For the same compound, the GI50 (EKVX NSCLC) was 3.77 µM and 0.791 µM, the TGI (EKVX NSCLC) was over 44.5 µM and the GI50 (HCC-2998 colon) was 10.3 µM. For the same compound, the TGI (HCC-2998 colon) was 24.6 µM, the TGI (HCT-116 colon) was 4.48 µM and 2.5 µM and the GI50 (HCT-15 colon) was 0.88 µM and 0.19 µM. For the same compound, the GI50 (HL-60(TB) leukemia) was 0.0325 µM and 0.192 µM, the TGI (HL-60(TB) leukemia) was over 100 µM and the TGI (HOP-62 NSCLC) was 0.466 µM and 0.154 µM. For the same compound, the TGI (HOP-92 NSCLC) was over 100 µM, the GI50 (HS 578T breast) was 4.87 µM and 0.875 µM and the TGI (HS 578T breast) was over 100 µM. The GI50 (HT29 colon) was 0.327 µM and 0.125 µM, the TGI (HT29 colon) was over 50 µM and the GI50 (IGROV1 ovarian) was 0.544 µM and 0.22 µM. For the same compound, the TGI (IGROV1 ovarian) was 12.4 µM and 7.63 µM, the TGI (K-562 leukemia) was over 100 µM and the GI50 (KM12 colon) was 4.99 µM and 1.74 µM. For the same compound, the TGI (KM12 colon) was > 41.6 µM and 8.08 µM, the GI50 (M14 melanoma) was 0.0322 µM and the TGI (M14 melanoma) was 6.02 µM and 1.03 µM. For the same compound, the TGI (MALME-3M melanoma) was 25.6 µM and 3.78 µM, the GI50 (MCF7 breast) was under 0.005 µM and the GI50 (MDA-MB-231 breast) was 7.04 µM. The TGI (MDA-MB-231 breast) was over 49.8 µM, the GI50 (MDA-MB-435) was 0.358 µM and 0.45 µM and the TGI (MDA-MB-435) was 24.3 µM and > 50 µM. The GI50 (MDA-N) was 0.616 µM and 0.183 µM, the TGI (MDA-N) was 28 µM and 3.12 µM and the TGI (NCI-H226 lung) was 3.05 µM. For the same compound, the GI50 (NCI-H23 lung) was 0.0356 µM and 0.0156 µM, the GI50 (NCI-H522 lung) was 0.072 µM and 0.192 µM and the GI50 (NCI/ADR-RES ovarian) was 0.0689 µM and 0.24 µM. The TGI (NCI/ADR-RES ovarian) was 2.88 µM and 2.78 µM, the GI50 (OVCAR-3 ovarian) was 1.46 µM and 0.337 µM and the TGI (OVCAR-3 ovarian) was 10.9 µM and 1.81 µM. The GI50 (OVCAR-4 ovarian) was 17.2 µM, the TGI (OVCAR-4 ovarian) was over 62.6 µM and the GI50 (OVCAR-5 ovarian) was 0.847 µM and 0.281 µM. For the same compound, the GI50 (OVCAR-8 ovarian) was 0.0551 µM and 0.28 µM, the TGI (OVCAR-8 ovarian) was 2.15 µM and 4.12 µM and the TGI (PC-3 prostate) was over 65.8 µM. The TGI (RPMI-8226 leukemia) was over 50 µM, the GI50 (RXF 393 renal) was 0.317 µM and 0.0619 µM and the TGI (RXF 393 renal) was 5.02 µM and 0.54 µM. The TGI (SF-268 CNS) was over 82.3 µM, the GI50 (SF-295 CNS) was 0.149 µM and 0.134 µM and the TGI (SF-295 CNS) was over 50 µM. The GI50 (SF-539 CNS) was 0.0228 µM and < 0.005 µM, the TGI (SF-539 CNS) was 0.239 µM and the GI50 (SK-MEL-2 melanoma) was 7.14 µM and 1.62 µM. The TGI (SK-MEL-2 melanoma) was 36.3 µM and 3.86 µM, the GI50 (SK-MEL-28 melanoma) was 11.4 µM and 1.17 µM and the TGI (SK-MEL-28 melanoma) was 35 µM and > 50 µM. The GI50 (SK-OV-3 ovarian) was 1.23 µM and 0.213 µM, the TGI (SK-OV-3 ovarian) was 15.2 µM and the GI50 (SN12C renal) was 0.0632 µM and 0.0234 µM. For the same compound, the TGI (SN12C renal) was > 100 µM and 24.6 µM, the GI50 (SNB-19 CNS) was 0.0869 µM and 0.0336 µM and the TGI (SNB-19 CNS) was over 52.5 µM. The TGI (SNB-75 CNS) was 5.48 µM and 0.647 µM, the TGI (SW-620 colon) was over 100 µM and the GI50 (T-47D breast) was 0.00836 µM. The TGI (T-47D breast) was 0.163 µM, the GI50 (TK-10 renal) was 3.49 µM and 0.549 µM and the TGI (U251 CNS) was 34.6 µM. The TGI (UACC-257 melanoma) was 66.7 µM and 11.3 µM, the TGI (UACC-62 melanoma) was 13.1 µM and the GI50 (UO-31 renal) was 0.129 µM and 0.0745 µM. The TGI (UO-31 renal) was 3.12 µM and 0.593 µM.
Compound `O=C(O)Cn1ccc(=O)c2cc([N+](=O)[O-])ccc21` has a TGI (786-0 renal) of over 100 µM, a TGI (A498 renal) of over 100 µM and a TGI (A549 NSCLC) of over 100 µM. For the same compound, the TGI (ACHN renal) was over 100 µM, the TGI (BT-549 breast) was over 100 µM and the TGI (CAKI-1 renal) was over 100 µM. The TGI (CCRF-CEM leukemia) was over 100 µM, the TGI (COLO 205 colon) was over 100 µM and the TGI (DU-145 prostate) was over 100 µM. It also gave a TGI (HCC-2998 colon) of over 100 µM, a TGI (HCT-116 colon) of over 100 µM and a TGI (HCT-15 colon) of over 100 µM. For the same compound, the TGI (HL-60(TB) leukemia) was over 100 µM, the TGI (HOP-62 NSCLC) was over 100 µM and the TGI (HS 578T breast) was over 100 µM. It also gave a TGI (HT29 colon) of over 100 µM, a TGI (IGROV1 ovarian) of over 100 µM and a TGI (K-562 leukemia) of over 100 µM. For the same compound, the TGI (KM12 colon) was over 100 µM, the TGI (M14 melanoma) was over 100 µM and the TGI (MALME-3M melanoma) was over 100 µM. For the same compound, the TGI (MCF7 breast) was over 100 µM, the TGI (MDA-MB-231 breast) was 33.5 µM and the TGI (MDA-MB-435) was over 100 µM. The TGI (MDA-N) was over 100 µM, the TGI (MOLT-4 leukemia) was over 100 µM and the TGI (NCI-H226 lung) was over 100 µM. For the same compound, the TGI (NCI-H23 lung) was over 100 µM, the TGI (NCI-H460 lung) was over 100 µM and the TGI (NCI-H522 lung) was over 100 µM. The TGI (NCI/ADR-RES ovarian) was over 100 µM, the TGI (OVCAR-3 ovarian) was over 100 µM and the TGI (OVCAR-5 ovarian) was over 100 µM. The TGI (OVCAR-8 ovarian) was over 100 µM, the TGI (PC-3 prostate) was over 100 µM and the TGI (SF-268 CNS) was over 100 µM. It also gave a TGI (SF-295 CNS) of over 100 µM, a TGI (SF-539 CNS) of over 100 µM and a TGI (SK-MEL-2 melanoma) of over 100 µM. For the same compound, the TGI (SK-MEL-28 melanoma) was over 100 µM, the TGI (SK-MEL-5 melanoma) was over 100 µM and the TGI (SK-OV-3 ovarian) was over 100 µM. It also gave a TGI (SN12C renal) of over 100 µM, a TGI (SNB-19 CNS) of over 100 µM and a TGI (SNB-75 CNS) of over 100 µM. It also gave a TGI (SR leukemia) of over 100 µM, a TGI (SW-620 colon) of over 100 µM and a TGI (T-47D breast) of over 100 µM. The TGI (TK-10 renal) was over 100 µM, the TGI (U251 CNS) was over 100 µM and the TGI (UACC-257 melanoma) was over 100 µM. It also gave a TGI (UACC-62 melanoma) of over 100 µM and a TGI (UO-31 renal) of over 100 µM.
